Test results: publication PMC10003010, “A Unique In Vitro Assay to Investigate ABCB4 Transport Function” (International Journal of Molecular Sciences, 2023)
Entries after “also recorded” stand apart in the source; their conditions may differ. Like-named read-outs stand apart in the source and are kept apart here.

Legend:
human ABCB4 [1] = biological target: T1, human ABCB4 (Homo sapiens, UniProt P21439); test: Inhibition of ABCB4-mediated digoxin transport, bidirectional assay in Abcb1KO-MDCKII-ABCB4 cells; type: cell-based
T1 construct: expressed in transfected cells; host or cells: Abcb1KO-MDCKII (canine kidney, Abcb1 knockout), lentiviral transduction, single clone

ABCB4 [2] = conditions: read-out: In Vitro Literature Data (IC50), cited from earlier work
[3] = ref FDA Liver Toxicity Knowledge Base (LTKB); cited from earlier work
ABCB1 = ABCB1 (Homo sapiens, UniProt P08183); conditions: Y/N; cited from earlier work
human ABCB4 [4] = biological target: T1, human ABCB4; test: Bidirectional transport (efflux ratio) in Abcb1KO-MDCKII-ABCB4 cells, substrate test; type: in vitro ADME; conditions: for ABCB4 substrate status, in words: bidirectional transport, ER cut-off 2
canine Abcb1 [5] = biological target: T2, canine Abcb1 (Canis lupus familiaris, UniProt C0KKU9); test: in vitro; conditions: dog, MDCK, pH 7.4
ABCB4 [6] = conditions: cited from earlier work; for In Vitro Literature Data, inhibitor (IC50 value was not determined): digoxin transport in ABCB4-transfected LLC-PK1 cells
ABCB4 [7] = conditions: cited from earlier work; for IC50: read-out: In Vitro Literature Data (IC50)
canine Abcb1 [8] = biological target: T2, canine Abcb1; parameters: To confirm the impact of endogenous canine Abcb1 on the efflux ratio (ER); host or cells: MDCKII parental (wildtype) cells; method as in PMID 31266750; conditions: previous study; cited from earlier work
[9] = digoxin 1 µM probe, ABCB4 cell monolayers, samples at 3 h, read-out: IC50 (µM), Based on Digoxin ER
[10] = primary hepatocyte assay, labeled PC

T1 sequence (P21439 1-1279 isoform P21439-2): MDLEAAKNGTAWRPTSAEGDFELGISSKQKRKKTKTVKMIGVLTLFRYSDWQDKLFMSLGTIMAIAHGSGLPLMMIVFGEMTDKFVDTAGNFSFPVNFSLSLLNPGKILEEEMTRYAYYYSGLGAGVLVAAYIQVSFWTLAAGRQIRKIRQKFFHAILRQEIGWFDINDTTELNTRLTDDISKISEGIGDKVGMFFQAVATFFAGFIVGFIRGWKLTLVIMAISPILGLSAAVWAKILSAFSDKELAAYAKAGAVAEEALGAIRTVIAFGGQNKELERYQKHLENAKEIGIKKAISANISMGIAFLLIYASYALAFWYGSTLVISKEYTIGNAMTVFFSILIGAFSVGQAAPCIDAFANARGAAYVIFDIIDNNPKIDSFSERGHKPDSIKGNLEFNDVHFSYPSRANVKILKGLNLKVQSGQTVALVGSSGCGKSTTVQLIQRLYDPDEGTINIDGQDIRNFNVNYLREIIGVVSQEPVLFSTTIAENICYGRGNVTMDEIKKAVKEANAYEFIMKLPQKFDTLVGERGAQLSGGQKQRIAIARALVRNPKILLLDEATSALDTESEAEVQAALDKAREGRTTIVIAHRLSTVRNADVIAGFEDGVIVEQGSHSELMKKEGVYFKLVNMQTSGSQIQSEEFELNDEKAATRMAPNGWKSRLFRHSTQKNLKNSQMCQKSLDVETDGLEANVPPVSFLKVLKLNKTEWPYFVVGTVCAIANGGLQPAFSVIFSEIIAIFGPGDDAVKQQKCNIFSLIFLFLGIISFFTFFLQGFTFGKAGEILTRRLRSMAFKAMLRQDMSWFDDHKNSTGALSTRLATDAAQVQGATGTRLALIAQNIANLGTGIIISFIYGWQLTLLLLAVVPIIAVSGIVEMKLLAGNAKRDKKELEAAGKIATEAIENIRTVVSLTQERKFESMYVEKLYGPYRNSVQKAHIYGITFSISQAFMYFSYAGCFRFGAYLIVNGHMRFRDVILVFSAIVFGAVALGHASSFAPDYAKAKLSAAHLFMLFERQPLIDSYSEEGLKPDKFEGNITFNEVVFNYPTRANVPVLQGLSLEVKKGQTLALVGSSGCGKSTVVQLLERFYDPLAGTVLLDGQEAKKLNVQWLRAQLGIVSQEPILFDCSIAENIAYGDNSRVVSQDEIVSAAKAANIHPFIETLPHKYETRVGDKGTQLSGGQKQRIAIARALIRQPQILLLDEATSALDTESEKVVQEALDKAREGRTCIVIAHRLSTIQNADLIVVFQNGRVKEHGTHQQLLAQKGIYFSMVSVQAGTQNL
T2 sequence (C0KKU9 1-1281): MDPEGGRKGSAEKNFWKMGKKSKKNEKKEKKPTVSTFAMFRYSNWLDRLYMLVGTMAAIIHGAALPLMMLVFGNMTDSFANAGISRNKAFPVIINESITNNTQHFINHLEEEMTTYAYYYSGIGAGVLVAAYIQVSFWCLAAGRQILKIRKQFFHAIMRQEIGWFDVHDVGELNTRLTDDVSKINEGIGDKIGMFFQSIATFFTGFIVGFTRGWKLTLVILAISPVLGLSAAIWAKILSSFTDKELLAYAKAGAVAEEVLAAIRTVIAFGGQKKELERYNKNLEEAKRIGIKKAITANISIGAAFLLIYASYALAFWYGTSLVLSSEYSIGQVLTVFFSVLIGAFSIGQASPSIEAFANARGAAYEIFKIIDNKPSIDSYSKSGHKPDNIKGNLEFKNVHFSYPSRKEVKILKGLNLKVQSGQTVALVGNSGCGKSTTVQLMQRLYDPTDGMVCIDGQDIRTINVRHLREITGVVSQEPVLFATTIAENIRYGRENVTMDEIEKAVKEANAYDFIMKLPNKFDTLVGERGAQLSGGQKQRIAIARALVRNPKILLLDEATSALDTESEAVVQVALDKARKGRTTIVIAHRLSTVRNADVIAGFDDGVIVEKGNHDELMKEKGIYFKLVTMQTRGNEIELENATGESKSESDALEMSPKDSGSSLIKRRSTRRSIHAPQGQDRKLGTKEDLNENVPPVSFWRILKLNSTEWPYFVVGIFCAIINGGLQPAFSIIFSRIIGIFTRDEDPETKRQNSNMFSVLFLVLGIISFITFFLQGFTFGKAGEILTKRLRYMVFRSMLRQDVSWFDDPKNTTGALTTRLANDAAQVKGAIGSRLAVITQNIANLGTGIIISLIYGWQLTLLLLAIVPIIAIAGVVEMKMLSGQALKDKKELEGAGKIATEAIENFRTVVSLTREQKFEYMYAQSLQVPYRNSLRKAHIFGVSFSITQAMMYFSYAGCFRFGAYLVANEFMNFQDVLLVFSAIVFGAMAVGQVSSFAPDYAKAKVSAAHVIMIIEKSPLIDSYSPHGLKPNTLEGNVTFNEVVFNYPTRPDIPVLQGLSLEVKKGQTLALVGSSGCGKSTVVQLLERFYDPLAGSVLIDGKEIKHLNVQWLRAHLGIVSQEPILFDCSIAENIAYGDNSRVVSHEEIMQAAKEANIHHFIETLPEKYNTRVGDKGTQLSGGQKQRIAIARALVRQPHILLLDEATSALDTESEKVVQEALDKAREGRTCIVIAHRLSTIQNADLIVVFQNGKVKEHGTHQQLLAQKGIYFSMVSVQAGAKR
Chain of ABCB1 (P08183 whole entry): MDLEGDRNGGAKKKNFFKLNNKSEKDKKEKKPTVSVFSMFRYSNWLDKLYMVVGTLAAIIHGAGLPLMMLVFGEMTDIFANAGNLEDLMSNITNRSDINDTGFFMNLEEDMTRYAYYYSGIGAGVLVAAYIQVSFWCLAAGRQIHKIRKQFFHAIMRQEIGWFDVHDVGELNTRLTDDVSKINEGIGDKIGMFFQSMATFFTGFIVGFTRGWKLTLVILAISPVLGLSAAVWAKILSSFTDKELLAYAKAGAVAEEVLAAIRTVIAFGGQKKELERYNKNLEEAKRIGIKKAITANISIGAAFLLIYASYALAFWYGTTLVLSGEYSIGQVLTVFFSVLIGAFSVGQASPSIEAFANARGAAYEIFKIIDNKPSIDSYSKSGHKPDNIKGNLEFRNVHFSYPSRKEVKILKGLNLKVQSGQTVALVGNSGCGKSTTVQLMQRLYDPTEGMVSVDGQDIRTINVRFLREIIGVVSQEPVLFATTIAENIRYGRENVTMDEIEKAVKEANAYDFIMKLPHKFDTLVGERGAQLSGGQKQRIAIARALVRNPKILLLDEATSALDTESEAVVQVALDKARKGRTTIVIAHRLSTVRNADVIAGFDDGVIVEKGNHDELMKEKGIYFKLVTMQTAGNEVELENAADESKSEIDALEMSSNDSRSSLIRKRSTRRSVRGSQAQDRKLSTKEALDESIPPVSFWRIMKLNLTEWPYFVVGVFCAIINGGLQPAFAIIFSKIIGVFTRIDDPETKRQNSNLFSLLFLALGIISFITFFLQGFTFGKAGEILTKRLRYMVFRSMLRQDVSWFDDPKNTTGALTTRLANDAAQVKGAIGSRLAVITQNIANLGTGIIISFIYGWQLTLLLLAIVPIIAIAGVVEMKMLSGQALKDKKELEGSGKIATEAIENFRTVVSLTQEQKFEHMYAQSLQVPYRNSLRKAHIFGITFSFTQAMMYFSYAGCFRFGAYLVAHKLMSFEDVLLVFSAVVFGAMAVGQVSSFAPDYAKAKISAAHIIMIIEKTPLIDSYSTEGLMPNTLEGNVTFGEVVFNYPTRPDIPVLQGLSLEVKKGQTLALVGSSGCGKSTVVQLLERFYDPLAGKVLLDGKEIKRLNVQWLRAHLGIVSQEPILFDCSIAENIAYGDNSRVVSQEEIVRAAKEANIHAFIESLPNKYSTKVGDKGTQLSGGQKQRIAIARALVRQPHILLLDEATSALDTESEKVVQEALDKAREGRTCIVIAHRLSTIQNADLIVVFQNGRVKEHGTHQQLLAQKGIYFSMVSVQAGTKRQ

Compound	Effect on ABCB4-mediated digoxin transport, in words (human ABCB4 [1]; digoxin 1 µM probe)	IC50 (human ABCB4 [1]; [9]) [µM]	DILI Concern [3]	also measured
CC(=O)Oc1ccccc1C(=O)O [acetylsalicylic acid]	no effect	> 100	No DILI concern	IC50 (ABCB4 [2]; human primary hepatocyte assay): > 300 µM
CCCCc1oc2ccccc2c1C(=O)c1cc(I)c(OCCN(CC)CC)c(I)c1 [amiodarone]		> 10		
CCOC(=O)C1=C(COCCN)NC(C)=C(C(=O)OC)C1c1ccccc1Cl (stereo not drawn) [amlodipine]	weak interaction	17.9		
C=C[C@@H]1C[C@]1(NC(=O)[C@@H]1C[C@@H](Oc2ncc(OC)c3ccc(Cl)cc23)CN1C(=O)[C@@H](NC(=O)OC(C)(C)C)C(C)(C)C)C(=O)NS(=O)(=O)C1CC1 [asunaprevir]	ABCB4 inhibitors			
CCc1oc2ccccc2c1C(=O)c1cc(Br)c(O)c(Br)c1 [benzbromarone]			Most DILI concern	IC50 (human ABCB4 [1]): 19.9 µM; IC50 (ABCB4 [2]; human primary hepatocyte assay): 0.4 µM
NC(=O)N1c2ccccc2C=Cc2ccccc21 [carbamazepine]		> 80	Most DILI concern	IC50 (ABCB4 [2]; human primary hepatocyte assay): > 300 µM; ABCB1 Interactor (ABCB1): Conflicting information [50]
COc1ccccc1OCCNCC(O)COc1cccc2[nH]c3ccccc3c12 (stereo not drawn) [carvedilol]		0.7	Less DILI concern	
CC[C@H]1OC(=O)[C@H](C)[C@@H](O[C@H]2C[C@@](C)(OC)[C@@H](O)[C@H](C)O2)[C@H](C)[C@@H](O[C@@H]2O[C@H](C)C[C@H](N(C)C)[C@H]2O)[C@](C)(OC)C[C@@H](C)C(=O)[C@H](C)[C@@H](O)[C@]1(C)O [clarithromycin]		> 80	Most DILI concern	
CC(C)CN(C[C@@H](O)[C@H](Cc1ccccc1)NC(=O)O[C@H]1CO[C@H]2OCC[C@H]21)S(=O)(=O)c1ccc(N)cc1 [darunavir]	ABCB4 inhibitors	> 10		inhibition at 10 µM (human ABCB4 [1]; read-out: % inhibition of ABCB4-mediated digoxin transport at 10 µM, 10 µM test drug, digoxin 1 µM): 60%
C[C@H]1O[C@@H](O[C@H]2[C@@H](O)C[C@H](O[C@H]3[C@@H](O)C[C@H](O[C@H]4CC[C@@]5(C)[C@H](CC[C@@H]6[C@@H]5C[C@@H](O)[C@]5(C)[C@@H](C7=CC(=O)OC7)CC[C@]65O)C4)O[C@@H]3C)O[C@@H]2C)C[C@H](O)[C@@H]1O [digoxin]				ABCB4 substrate status, in words (human ABCB4 [4]): shared substrate for ABCB1 and ABCB4; efflux ratio at 1 µM (canine Abcb1 [5]): 4.74 ± 0.15
COc1ccc([C@@H]2Sc3ccccc3N(CCN(C)C)C(=O)[C@@H]2OC(C)=O)cc1 [diltiazem]		48.6		
COc1cc2c(cc1OC)CN(CCc1ccc(NC(=O)c3cccc4c(=O)c5cccc(OC)c5[nH]c34)cc1)CC2 [elacridar]	strong concentration-dependent inhibitory effect	0.15		
C#Cc1cccc(Nc2ncnc3cc(OCCOC)c(OCCOC)cc23)c1 [erlotinib]		> 5	Most DILI concern	
CCOC(=O)C1=C(C)NC(C)=C(C(=O)OC)C1c1cccc(Cl)c1Cl (stereo not drawn) [felodipine]	no interaction	> 30		
CC(C)OC(=O)C(C)(C)Oc1ccc(C(=O)c2ccc(Cl)cc2)cc1 [fenofibrate]	no interaction	> 20		
OC(Cn1cncn1)(Cn1cncn1)c1ccc(F)cc1F [fluconazole]			Most DILI concern	IC50 (human ABCB4 [1]): > 3 µM; IC50 (ABCB4 [2]; human primary hepatocyte assay): > 300 µM
CC[C@H](Nc1ncnc2[nH]cnc12)c1nc2cccc(F)c2c(=O)n1-c1ccccc1 [idelalisib]	did not inhibit ABCB4	> 5		

Compound	Effect on ABCB4-mediated digoxin transport, in words (human ABCB4 [1]; digoxin 1 µM probe)	IC50 (human ABCB4 [1]; [9]) [µM]	DILI Concern [3]	also measured
CCC(C)n1ncn(-c2ccc(N3CCN(c4ccc(OCC5COC(Cn6cncn6)(c6ccc(Cl)cc6Cl)O5)cc4)CC3)cc2)c1=O (stereo not drawn) [itraconazole]		0.17	Most DILI concern	Effect on ABCB4-mediated transport of gefitinib (human ABCB4 [4]; itraconazole 2 µM, gefitinib 0.5 µM): inhibited; IC50 (ABCB4 [2]; [10]): 2.1 µM; In Vitro Literature Data, % inhibition at 10 µM (ABCB4 [6]; 10 µM, LLC-PK1-ABCB4 cells): 30%; In Vitro Literature Data, % inhibition at 1 µM (ABCB4 [7]; 1 µM): 50%; IC50 (ABCB4 [7]): 22.5 µM
CC(=O)N1CCN(c2ccc(OCC3COC(Cn4ccnc4)(c4ccc(Cl)cc4Cl)O3)cc2)CC1 (stereo not drawn) [ketoconazole]			Most DILI concern	IC50 (human ABCB4 [1]): 0.56 µM; IC50 (ABCB4 [7]): 4.6 µM
Cc1cccc(C)c1OCC(=O)N[C@@H](Cc1ccccc1)[C@@H](O)C[C@H](Cc1ccccc1)NC(=O)[C@H](C(C)C)N1CCCNC1=O [lopinavir]	ABCB4 inhibitors	0.6		
CN(Cc1cnc2nc(N)nc(N)c2n1)c1ccc(C(=O)N[C@@H](CCC(=O)O)C(=O)O)cc1 [methotrexate]	did not detect interaction; also recorded: did not show inhibition	> 10	Most DILI concern	IC50 (ABCB4 [2]; human primary hepatocyte assay): 3.1 µM
COCC(=O)O[C@]1(CCN(C)CCCc2nc3ccccc3[nH]2)CCc2cc(F)ccc2[C@@H]1C(C)C [mibefradil]	strong concentration-dependent inhibitory effect	0.4		
Nc1cc(N2CCCCC2)nc(N)[n+]1[O-] [minoxidil]	no effect	> 20		IC50 (ABCB4 [2]; human primary hepatocyte assay): > 300 µM
COc1ccnc(C[S+]([O-])c2nc3ccc(OC(F)F)cc3[nH]2)c1OC (stereo not drawn) [pantoprazole]	no interaction	> 10	Less DILI concern	
COc1cc2nc(N3CCN(C(=O)c4ccco4)CC3)nc(N)c2cc1OC [prazosin]		16.1		ABCB4 substrate status, in words (human ABCB4 [4]): minor ABCB4-mediated directional transport
C=C[C@H]1C[N@@]2CC[C@H]1C[C@@H]2[C@@H](O)c1ccnc2ccc(OC)cc12 [quinidine]		1.09		efflux ratio at 1 µM (human ABCB4 [4]; human, pH 7.4, 1 µM, ABCB4 cells, read-out: Efflux ratio (ER)): < 2
CC(C)c1nc(CN(C)C(=O)N[C@H](C(=O)N[C@@H](Cc2ccccc2)C[C@H](O)[C@H](Cc2ccccc2)NC(=O)OCc2cncs2)C(C)C)cs1 [ritonavir]			Most DILI concern	IC50 (ABCB4 [2]; human primary hepatocyte assay): […]; IC50 (ABCB4 [2]; [10]): […]
CC(C)(C)NC(=O)[C@@H]1C[C@@H]2CCCC[C@@H]2CN1C[C@@H](O)[C@H](Cc1ccccc1)NC(=O)[C@H](CC(N)=O)NC(=O)c1ccc2ccccc2n1 [saquinavir]		1.4	Less DILI concern	
CNC(=O)c1cc(Oc2ccc(NC(=O)Nc3ccc(Cl)c(C(F)(F)F)c3)cc2)ccn1 [sorafenib]		4.42	Most DILI concern	
C/C=C/C[C@@H](C)C(=O)[C@H]1C(=O)N[C@@H](C(C)C)C(=O)N(C)CC(=O)N(C)[C@@H](CC(C)C)C(=O)N[C@@H](C(C)C)C(=O)N(C)[C@@H](CC(C)C)C(=O)N[C@@H](C)C(=O)N[C@H](C)C(=O)N(C)[C@@H](CC(C)C)C(=O)N(C)[C@@H](CC(C)C)C(=O)N(C)[C@@H](C(C)C)C(=O)N1C [valspodar]	potent ABCB4 inhibitor			IC50 (human ABCB4 [1]): 0.15 µM; In Vitro Literature Data, inhibitor (IC50 value was not determined) (ABCB4 [6]): Inhibitor ^d [16]
COc1ccc(CCN(C)CCCC(C#N)(c2ccc(OC)c(OC)c2)C(C)C)cc1OC (stereo not drawn) [verapamil]				In Vitro Literature Data, inhibitor (IC50 value was not determined) (ABCB4 [6]): inhibitor
O[C@@H](COc1cccc2ncccc12)CN1CCN([C@@H]2c3ccccc3[C@@H]3[C@H](c4ccccc42)C3(F)F)CC1 [zosuquidar]	strong concentration-dependent inhibitory effect	0.07		
ivermectin	ABCB4 inhibitor	0.53	Less DILI concern	In Vitro Literature Data, substrate (ABCB4 [6]; LLC-PK1-ABCB4 cells): Substrate [16]
maraviroc				Affinity for endogenous canine Abcb1 in MDCKII cell lines, in words (canine Abcb1 [8]): strong affinity
